# System: A375 cells
# Experiment: A375 cell immunofluorescence assay (with 1 μM S1152 and 0.5 μM S1008), EC50
# Format: cell-based
# Details: 1 μM S1152 + 0.5 μM S1008, one day, ratio FL2/FL3 staining (sc-365823 antibody)
# Procedure, shortened: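 A375 cells were treated for 1 day with 1 μM S1152, 0.5 μM S1008 and compound dose ranges in DMEM/10% FCS/2 mM glutamine, then fixed, permeabilized and immunostained (secondary antibody 2 μg/ml). FL2 (500-530 nm) signal was measured in propidium iodide-defined objects (FL3, 565-600 nm). The normalized ln FL2/ln FL3 ratio was log-transformed, and EC50 came from a 4-parameter fit.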
row,EC50 [µM],SMILES
1,> 10,COc1cncc(-c2cc(Nc3ccc(OCCOCCOCCNC(C)=O)cc3)nc(C3CCCN(C(C)=O)C3)n2)c1 (stereo not shown)
2,> 10,CC(=O)N1CCCC(c2nc(Nc3cccnn3)cc(-c3cccnc3)n2)C1 (stereo not shown)
3,1 to 10,CC(=O)N1CCCC(c2nc(Nc3cncc(C)n3)cc(-c3cccnc3)n2)C1 (stereo not shown)
4,1 to 10,CC(=O)N1CCCC(c2cc(-c3cccnc3)nc(Nc3cccc(F)c3)n2)C1 (stereo not shown)
5,< 1,CC(=O)N1CCCC(c2nc(Nc3cccc(F)c3)cc(Nc3ncccn3)n2)C1 (stereo not shown)
6,1 to 10,CC(=O)N1CCCC(c2nc(Nc3cccc(F)c3)cc(-c3ccoc3)n2)C1 (stereo not shown)
7,> 10,CCC(=O)N1CCCC(c2nc(Nc3cccc(F)c3)cc(C3=CCCCC3)n2)C1 (stereo not shown)
8,1 to 10,CC(=O)N1C[C@H](c2nc(Nc3cccc(C)c3)cc(-c3cncc4[nH]ncc34)n2)CC[C@@H]1C
9,1 to 10,CC(=O)N1CCCC(c2nc(Nc3cncnc3)cc(Nc3cccc(F)c3)n2)C1 (stereo not shown)
10,1 to 10,CC(=O)N1CCCC(c2nc(Nc3cccc(F)c3)cc(-c3ccncc3)n2)C1 (stereo not shown)
11,> 10,CN1CCC(c2nc(Nc3cccc(F)c3)cc(-c3cccnc3)n2)CC1=O (stereo not shown)
12,> 10,CCC(=O)N1CCCC(c2nc(NC3CCCCC3)cc(-c3cccnc3)n2)C1 (stereo not shown)
13,< 1,COc1cncc(-c2cc(Nc3cncc(C)c3)nc([C@@H]3CC[C@H](C)N(C(C)=O)C3)n2)c1
14,> 10,O=C1CCC2CCC(c3nc(Nc4cccc(F)c4)cc(-c4cccnc4)n3)CN12 (stereo not shown)
15,1 to 10,CC(=O)N1CC(F)CC(c2nc(Nc3cccc(F)c3)cc(-c3cccnc3)n2)C1 (stereo not shown) [drawing 702]
16,< 1,CC(=O)N1CCCC(c2nc(Nc3cccc(F)c3)cc(-c3cncc4nc(C)oc34)n2)C1 (stereo not shown)
17,> 10,CCC(=O)N1CCCC(c2nc(Nc3cccc(F)c3)cc(-c3cnc(OC(C)C)s3)n2)C1 (stereo not shown)
18,1 to 10,COc1cncc(-c2cc(Nc3ccc(C)c(F)c3)nc(C3CCCN(C(C)=O)C3)n2)c1 (stereo not shown)
19,< 1,CC(=O)N1CCCC(c2nc(Nc3cccc(F)c3)cc(-c3cccnc3)n2)C1 (stereo not shown)
20,1 to 10,CC(=O)N1CCCC(c2nc(Nc3cccc(F)c3)cc(-c3cnccc3C)n2)C1 (stereo not shown)
21,< 1,COc1csc(-c2cc(Nc3cccc(F)c3)nc(C3CCCN(C(C)=O)C3)n2)c1 (stereo not shown)
22,> 10,CCC(=O)N1CCCC(c2nc(NCCN(C)C)cc(Nc3cccc(F)c3)n2)C1 (stereo not shown)
23,1 to 10,CC(=O)N1CCCC(c2nc(Nc3cccnc3)cc(-c3cccnc3)n2)C1 (stereo not shown)
24,1 to 10,CC(=O)N1CCCC(c2nc(Nc3cccc(F)c3)cc(-c3ccc(N4CCOCC4)nc3)n2)C1 (stereo not shown)

row,EC50 [µM],SMILES
1,> 10,CC(=O)N1CCCC(c2nc(NC34CC(C3)C4)cc(-c3cccnc3)n2)C1 (stereo not shown)
2,< 1,CC(=O)N1CCCC(c2nc(Nc3cccc(C)c3)cc(-c3cccnc3)n2)C1 (stereo not shown)
3,1 to 10,CCC(=O)N1CCCC(c2nc(Nc3cccc(F)c3)cc(-c3ccccc3)n2)C1 (stereo not shown)
4,> 10,CCC(=O)N1CCCC(c2nc(Nc3cccc(F)c3)cc(C3CCOCC3)n2)C1 (stereo not shown)
5,> 10,CCN1CCCC(c2nc(Nc3cccc(F)c3)cc(-c3cccnc3)n2)C1 (stereo not shown)
6,1 to 10,CCC(=O)N1CCCC(c2nc(Nc3cccc(OC)c3)cc(-c3cccnc3)n2)C1 (stereo not shown)
7,< 1,COc1cncc(-c2cc(Nc3cccc(F)c3)nc(C3CCCN(C(C)=O)C3)n2)c1 (stereo not shown)
8,> 10,CCC(=O)N1CCCC(c2nc(Nc3cccc(F)c3)cc(-c3cnn(C(C)C)c3)n2)C1 (stereo not shown)
9,1 to 10,CCC(=O)N1CCCC(c2nc(Nc3cccc(F)c3)cc(-c3cnn(CC(F)(F)F)c3)n2)C1 (stereo not shown)
10,< 1,COc1csc(-c2cc(Nc3cccc(C)c3)nc(C3CCCN(C(C)=O)C3)n2)c1 (stereo not shown)
11,1 to 10,CC(=O)N1CCCC(c2nc(Nc3cccc(F)c3)cc(Nc3ccccn3)n2)C1 (stereo not shown)
12,> 10,CC(=O)N1CCCC(c2nc(Nc3cccc(F)c3)cc(-c3ccc(N4CCN(C)CC4)nc3)n2)C1 (stereo not shown)
13,< 1,CC(=O)N1C[C@H](c2nc(Nc3cccc(F)c3)cc(-c3cccnc3)n2)CC[C@@H]1C
14,1 to 10,CCC(=O)N1CCCC(c2nc(Nc3cccc(F)c3)cc(-c3cccc(NC(C)=O)c3)n2)C1 (stereo not shown)
15,> 10,CCCN1CCCC(c2nc(Nc3cccc(F)c3)cc(-c3cccnc3)n2)C1 (stereo not shown)
16,< 1,CC(=O)N1CCCC(c2nc(Nc3ccccc3)cc(-c3cncc4[nH]ccc34)n2)C1 (stereo not shown)
17,1 to 10,CC(=O)N1CCCC(c2nc(Nc3cccc(F)c3)cc(-c3c(C)noc3C)n2)C1 (stereo not shown)
18,1 to 10,CCc1cccc(Nc2cc(-c3cncc(OC)c3)nc(C3CCCN(C(C)=O)C3)n2)c1 (stereo not shown)
19,> 10,CCC(=O)N1CCCC(c2nc(Nc3cccc(F)c3)cc(-c3cccc(OC(F)F)c3)n2)C1 (stereo not shown)
20,1 to 10,CCC(=O)N1CCCC(c2nc(Nc3cccc(F)c3)cc(-c3cccc(O)c3)n2)C1 (stereo not shown)
21,1 to 10,CC(=O)N1CCCC(c2nc(Nc3cccc(C)c3)cc(-c3ccnnc3)n2)C1 (stereo not shown)
22,1 to 10,CC(=O)N1CCCC(c2nc(Nc3ccccc3)cc(-c3cccnc3)n2)C1 (stereo not shown)
23,1 to 10,CC(=O)N1CCCC(c2nc(Nc3cccc(C)c3)cc(-c3cncnc3)n2)C1 (stereo not shown)
24,1 to 10,COc1ccc(Nc2cc(-c3cncc(OC)c3)nc(C3CCCN(C(C)=O)C3)n2)cc1 (stereo not shown)

row,EC50 [µM],SMILES
1,> 10,COC(=O)c1cncc(-c2cc(Nc3cccc(F)c3)nc(C3CCCN(C(C)=O)C3)n2)c1 (stereo not shown)
2,< 1,CC(=O)N1C[C@H](c2nc(Nc3cncc(C)c3)cc(-c3cncc4[nH]ccc34)n2)CC[C@@H]1C
3,> 10,CCC(=O)N1CCCC(c2nc(Nc3ccccc3F)cc(-c3ccncc3)n2)C1 (stereo not shown)
4,1 to 10,O=C1CCC2C(c3nc(Nc4cccc(F)c4)cc(-c4cccnc4)n3)CCCN12 (stereo not shown)
5,1 to 10,CCC(=O)N1CCCC(c2nc(Nc3cccc(F)c3)cc(-c3cncnc3)n2)C1 (stereo not shown)
6,1 to 10,CC(=O)N1CC(c2nc(Nc3cccc(F)c3)cc(-c3cccnc3)n2)CC2CCCCC21 (stereo not shown)
7,> 10,CCC(=O)N1CCCC(c2nc(Cl)cc(Nc3cccc(F)c3)n2)C1 (stereo not shown)
8,> 10,CC(=O)N1CCCC(c2nc(Nc3cccc(F)c3)cc(-c3cnn[nH]3)n2)C1 (stereo not shown)
9,1 to 10,CC(=O)N1CCCC(c2nc(Nc3cncc(F)c3)cc(-c3cccnc3)n2)C1 (stereo not shown)
10,> 10,CC(=O)NCCOCCOCCNC(=O)c1ccc(-c2cc(Nc3cccc(F)c3)nc(C3CCCN(C(C)=O)C3)n2)cc1 (stereo not shown)
11,> 10,CC(C)CN1CCCC(c2nc(Nc3cccc(F)c3)cc(-c3cccnc3)n2)C1 (stereo not shown)
12,1 to 10,CCC(=O)N1CCCC(c2nc(Nc3cccc(F)c3)cc(-c3cccc(N4CCOCC4)c3)n2)C1 (stereo not shown)
13,> 10,CCC(=O)N1CCCC(c2nc(Nc3cccc(F)c3)cc(Nc3cccc(F)c3)n2)C1 (stereo not shown)
14,> 10,CCC(=O)N1CCCC(c2nc(Nc3cccc(F)c3)cc(-c3ccccc3OC(F)(F)F)n2)C1 (stereo not shown)
15,> 10,O=C1CCCC2CCC(c3nc(Nc4cccc(F)c4)cc(-c4cccnc4)n3)CN12 (stereo not shown)
16,> 10,CCC(=O)N1CCCC(c2nc(Nc3cccc(F)c3)cc(-c3cnn(C)c3)n2)C1 (stereo not shown)
17,> 10,CCC(=O)N1CCCC(c2nc(Nc3ncccn3)cc(-c3cccnc3)n2)C1 (stereo not shown)
18,> 10,CCC(=O)N1CCCC(c2nc(Nc3cccc(F)c3)cc(-c3ccc(N(C)C)nc3)n2)C1 (stereo not shown)
19,1 to 10,COc1cncc(-c2cc(Nc3cccc(Cl)c3)nc([C@H]3CCCN(C(C)=O)C3)n2)c1
20,> 10,CCC(=O)N1CCCC(c2nc(Nc3ccccc3OC)cc(-c3cccnc3)n2)C1 (stereo not shown)
21,1 to 10,CC(=O)N1CCCC(c2nc(Nc3cccc(F)c3)cc(-c3cncc(C(=O)N4C[C@@H]5C[C@H]4CO5)c3)n2)C1 (stereo partly shown)
22,> 10,CC(=O)N1CCCC(c2nc(Nc3cncnc3)cc(-c3cccnc3)n2)C1 (stereo not shown)
23,1 to 10,CC(=O)N1CCCC(c2nc(Nc3cc(F)cc(F)c3)cc(-c3ccnnc3)n2)C1 (stereo not shown)
24,1 to 10,CCC(=O)N1CCC[C@@H](c2nc(Nc3cccc(F)c3)cc(-c3cccnc3)n2)C1

row,EC50 [µM],SMILES
1,1 to 10,O=C(C1CC1)N1CCCC(c2nc(Nc3cccc(F)c3)cc(-c3cccnc3)n2)C1 (stereo not shown)
2,< 1,CC(=O)N1C[C@H](c2nc(Nc3cncc(C)c3)cc(-c3cncnc3)n2)CC[C@@H]1C
3,1 to 10,CC(=O)N1CCCC(c2nc(Nc3cccc(F)c3)cc(-c3ccnnc3)n2)C1 (stereo not shown)
4,< 1,COc1cncc(-c2cc(Nc3cccc(Cl)c3)nc(C3CCCN(C(C)=O)C3)n2)c1 (stereo not shown)
5,< 1,CC(=O)N1CCCC(c2nc(Nc3cccc(C)c3)cc(-c3cncc(-c4nccs4)c3)n2)C1 (stereo not shown)
6,> 10,CC(=O)N1CCC[C@H](c2nc(Nc3cccc(F)c3)cc(-c3cccnc3)n2)C1
7,1 to 10,CC(=O)N1CCCC(c2nc(Nc3cccnc3)cc(Nc3cccc(F)c3)n2)C1 (stereo not shown)
8,1 to 10,CCC(=O)N1CCCC(c2nc(Nc3cccc(F)c3)cc(-c3ccc4scnc4c3)n2)C1 (stereo not shown)
9,< 1,COc1cncc(-c2cc(Nc3cccc(Cl)c3)nc([C@@H]3CCCN(C(C)=O)C3)n2)c1
10,> 10,CC(=O)N1CCCC(c2nc(Nc3cccnc3)cc(-c3cncc4[nH]ccc34)n2)C1 (stereo not shown)
11,< 1,CC(=O)N1C[C@H](c2nc(Nc3cncc(C)c3)cc(-c3cncc(C)c3)n2)CC[C@@H]1C
12,> 10,CCC(=O)N1CCCC(c2nc(Nc3cccc(C(F)(F)F)c3)cc(-c3cccnc3)n2)C1 (stereo not shown)
13,> 10,CCC(=O)N1CCC(c2nc(Nc3cccc(F)c3)cc(-c3cccnc3)n2)C1 (stereo not shown)
14,> 10,CCC(=O)N1CCCC(c2nc(Nc3cccc(F)c3)cc(-c3ccccc3OC)n2)C1 (stereo not shown)
15,< 1,COc1cncc(-c2cc(Nc3cccc(F)c3)nc([C@@H]3CCCN(C(C)=O)C3)n2)c1
16,> 10,CC(=O)N1CC(c2nc(Nc3cccc(F)c3)cc(-c3cccnc3)n2)CCC1c1ccccc1 (stereo not shown)
17,> 10,CCC(=O)N1CCCC(c2nc(Nc3cccc(F)c3)cc(-c3cnc(NC)nc3)n2)C1 (stereo not shown)
18,> 10,CCC(=O)N1CCCC(c2nc(Nc3cccc(F)c3)cc(NC3CC3)n2)C1 (stereo not shown)
19,> 10,CN1CCOC(c2nc(Nc3cccc(F)c3)cc(-c3cccnc3)n2)C1 (stereo not shown)
20,> 10,CC(=O)N1CCCC(c2nc(Nc3cccc(F)c3)cc(NC3CCOCC3)n2)C1 (stereo not shown)
21,1 to 10,CC(=O)N1CCCC(c2nc(Nc3cccc(F)c3)cc(-c3ccc(N4C[C@@H]5C[C@H]4CO5)nc3)n2)C1 (stereo partly shown)
22,1 to 10,COc1cncc(-c2cc(Nc3ccc(Cl)cc3)nc(C3CCCN(C(C)=O)C3)n2)c1 (stereo not shown)

# From US20230067929A1, “HETEROCYCLIC DERIVATIVES, PHARMACEUTICAL COMPOSITIONS AND THEIR USE IN THE TREATMENT, AMELIORATION OR PREVENTION OF CANCER” (Tolremo Therapeutics AG, priority 2018, published 2023)
